One experiment has as its target T1, SMARCA4 (Homo sapiens, UniProt P51532).
T1 construct: SMARCA2 and SMARCA4 protein degradation in MV4-11 cells; endogenous in cells; host or cells: MV4-11
As to the kind of experiment: SMARCA4 Western blot MV4-11 degradation. The format is cell-based. Conditions: 24 h; for Dmax: MV4-11, MV4-11 cells, read-out: SMARCA4 WB MV411 degradation 24 h: Average Dmax %; for DC50: MV4-11 cells, read-out: SMARCA4 WB MV411 degradation 24 h: Average external-Abs DC50. Put shortly:
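MV4-11 cells treated with compound for 24 h, lysed in RIPA with protease/phosphatase inhibitors, and SMARCA2 and SMARCA4 (BRG1) levels assessed by Western blot with β-actin loading control and LI-COR fluorescent read-out. Maximal degradation (Dmax %) after 24 h binned into letter codes.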
On the technique in general: A western blot detects proteins with antibodies after separation by electrophoresis.

In another experiment the target is SMARCA2 (Homo sapiens, UniProt P51531). As to the kind of experiment: MSD SMARCA2 degradation in A549 cell line. The class given is cell-based. The settings on record: 24 h; for Dmax: A549, A549 cells; for DC50: A549 cells, read-out: SMARCA2 MSD A549 degradation 24 h: Average external-Abs DC50. The procedure, abridged: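 A549 cells treated 24 h with compound at final 0.152-1000 nM (3-fold series, DMSO control). Lysates analyzed by MSD immunoassay using anti-SMARCA2/BRM detection and SULFO-TAG secondary antibodies; maximal degradation (Dmax %) reported as letter bins.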
Chain of SMARCA2 (P51531 whole entry): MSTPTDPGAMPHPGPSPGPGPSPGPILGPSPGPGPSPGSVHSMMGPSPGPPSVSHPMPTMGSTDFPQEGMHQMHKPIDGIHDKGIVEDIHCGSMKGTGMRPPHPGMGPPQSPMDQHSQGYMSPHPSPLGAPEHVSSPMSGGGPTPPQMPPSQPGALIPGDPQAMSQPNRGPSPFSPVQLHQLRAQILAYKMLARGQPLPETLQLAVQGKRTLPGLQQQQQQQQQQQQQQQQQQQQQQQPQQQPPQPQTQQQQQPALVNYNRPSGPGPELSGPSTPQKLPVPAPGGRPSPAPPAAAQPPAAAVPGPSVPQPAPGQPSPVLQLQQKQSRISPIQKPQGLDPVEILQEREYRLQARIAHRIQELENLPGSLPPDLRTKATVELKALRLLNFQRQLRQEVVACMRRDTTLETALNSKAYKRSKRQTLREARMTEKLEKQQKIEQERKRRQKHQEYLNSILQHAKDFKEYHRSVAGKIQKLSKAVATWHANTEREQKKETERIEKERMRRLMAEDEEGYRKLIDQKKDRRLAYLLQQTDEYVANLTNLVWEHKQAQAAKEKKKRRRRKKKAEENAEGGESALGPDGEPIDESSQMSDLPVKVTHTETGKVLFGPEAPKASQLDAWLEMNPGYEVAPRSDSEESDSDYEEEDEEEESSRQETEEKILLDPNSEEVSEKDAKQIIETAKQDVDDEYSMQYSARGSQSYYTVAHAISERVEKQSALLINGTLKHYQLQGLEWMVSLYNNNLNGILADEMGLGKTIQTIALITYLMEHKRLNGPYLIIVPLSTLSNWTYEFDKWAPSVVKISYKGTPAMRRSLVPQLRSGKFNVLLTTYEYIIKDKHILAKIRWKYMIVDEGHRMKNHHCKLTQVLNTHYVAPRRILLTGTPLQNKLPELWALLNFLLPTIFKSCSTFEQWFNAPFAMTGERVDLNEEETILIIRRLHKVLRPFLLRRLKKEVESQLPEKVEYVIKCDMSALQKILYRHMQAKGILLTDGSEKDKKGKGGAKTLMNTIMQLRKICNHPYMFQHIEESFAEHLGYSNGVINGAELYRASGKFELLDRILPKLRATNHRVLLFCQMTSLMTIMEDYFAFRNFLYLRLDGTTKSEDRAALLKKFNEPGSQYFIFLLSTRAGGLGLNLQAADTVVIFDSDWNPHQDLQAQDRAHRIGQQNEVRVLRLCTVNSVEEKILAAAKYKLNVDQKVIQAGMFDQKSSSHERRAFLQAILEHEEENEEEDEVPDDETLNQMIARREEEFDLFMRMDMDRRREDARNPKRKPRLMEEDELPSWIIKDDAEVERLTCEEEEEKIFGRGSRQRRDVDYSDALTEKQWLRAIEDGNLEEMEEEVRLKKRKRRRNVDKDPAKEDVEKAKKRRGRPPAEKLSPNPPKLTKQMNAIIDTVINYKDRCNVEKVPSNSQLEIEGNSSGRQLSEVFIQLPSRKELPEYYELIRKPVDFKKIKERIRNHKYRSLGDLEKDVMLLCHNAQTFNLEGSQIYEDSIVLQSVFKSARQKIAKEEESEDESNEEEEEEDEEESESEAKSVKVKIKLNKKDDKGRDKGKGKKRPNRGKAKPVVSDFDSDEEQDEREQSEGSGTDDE

We go through 21 compounds from patent publication US12624044B2, “SMARCA degraders and uses thereof” (Kymera Therapeutics, Inc., priority 2019, dated 2026).

T1 sequence (P51532 whole entry): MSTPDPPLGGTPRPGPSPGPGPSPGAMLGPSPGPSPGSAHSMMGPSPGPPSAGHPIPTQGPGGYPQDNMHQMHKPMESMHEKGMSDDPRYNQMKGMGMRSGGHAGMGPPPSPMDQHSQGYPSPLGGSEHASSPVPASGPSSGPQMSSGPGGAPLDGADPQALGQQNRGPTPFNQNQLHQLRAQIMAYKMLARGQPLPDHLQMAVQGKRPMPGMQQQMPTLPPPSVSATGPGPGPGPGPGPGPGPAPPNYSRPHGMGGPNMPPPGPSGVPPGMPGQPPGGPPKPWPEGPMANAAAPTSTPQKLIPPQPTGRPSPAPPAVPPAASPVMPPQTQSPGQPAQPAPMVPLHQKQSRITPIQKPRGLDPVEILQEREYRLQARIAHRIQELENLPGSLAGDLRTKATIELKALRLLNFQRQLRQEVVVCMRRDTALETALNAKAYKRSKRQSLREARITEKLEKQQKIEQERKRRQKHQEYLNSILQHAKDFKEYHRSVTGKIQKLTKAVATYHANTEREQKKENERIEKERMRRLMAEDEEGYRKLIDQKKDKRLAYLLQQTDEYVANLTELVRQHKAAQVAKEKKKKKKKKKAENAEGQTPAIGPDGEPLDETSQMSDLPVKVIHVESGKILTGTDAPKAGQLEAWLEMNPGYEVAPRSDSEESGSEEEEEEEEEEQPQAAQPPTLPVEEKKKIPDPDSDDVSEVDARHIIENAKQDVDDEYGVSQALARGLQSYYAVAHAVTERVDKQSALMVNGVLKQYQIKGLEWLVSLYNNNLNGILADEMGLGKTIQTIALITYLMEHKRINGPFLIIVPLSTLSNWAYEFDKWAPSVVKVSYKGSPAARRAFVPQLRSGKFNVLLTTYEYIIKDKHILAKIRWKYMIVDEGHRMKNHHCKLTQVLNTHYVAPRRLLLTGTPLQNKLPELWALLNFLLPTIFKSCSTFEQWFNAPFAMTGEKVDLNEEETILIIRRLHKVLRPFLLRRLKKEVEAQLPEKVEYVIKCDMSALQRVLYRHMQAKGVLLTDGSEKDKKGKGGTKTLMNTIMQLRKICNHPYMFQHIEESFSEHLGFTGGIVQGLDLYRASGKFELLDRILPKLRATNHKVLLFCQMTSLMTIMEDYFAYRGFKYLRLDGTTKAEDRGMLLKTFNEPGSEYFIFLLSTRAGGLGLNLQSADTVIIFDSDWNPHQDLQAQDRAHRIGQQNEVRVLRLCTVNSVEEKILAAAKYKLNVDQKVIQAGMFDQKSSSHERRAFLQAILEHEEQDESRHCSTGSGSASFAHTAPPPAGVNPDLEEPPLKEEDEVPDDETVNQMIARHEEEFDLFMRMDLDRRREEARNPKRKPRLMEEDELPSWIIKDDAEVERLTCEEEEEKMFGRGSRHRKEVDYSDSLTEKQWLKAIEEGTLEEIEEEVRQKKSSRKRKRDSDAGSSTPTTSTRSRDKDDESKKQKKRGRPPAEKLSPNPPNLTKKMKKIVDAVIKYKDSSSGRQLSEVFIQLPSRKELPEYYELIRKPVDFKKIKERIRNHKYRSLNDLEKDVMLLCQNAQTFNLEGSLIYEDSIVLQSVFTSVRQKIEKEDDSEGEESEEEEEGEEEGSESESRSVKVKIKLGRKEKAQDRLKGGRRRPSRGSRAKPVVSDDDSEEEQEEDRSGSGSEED

For `Cn1c(=O)n(C2CCC(=O)NC2=O)c2ccc([C@H]3CC[C@H](N4CCC(c5nccc(N6C7CCC6CN(c6cc(-c8ccccc8O)nnc6N)C7)n5)CC4)CC3)cc21` (stereo partly drawn) [I-280, 3-(5-((1r,4r)-4-(4-(4-(3-(3-amino-6-(2-hydroxyphenyl)pyridazin-4-yl)-3,8-diazabicyclo[3.2.1]octan-8-yl)pyrimidin-2-yl)piperidin-1-yl)cyclohexyl)-3-methyl-2-oxo-2,3-dihydro-1H-benzo[d]imidazol-1-yl)piperidine-2,6-dione], on SMARCA4, the Dmax (in general, the largest share of the target that was removed) was over 90% and the DC50 (as a rule, the concentration giving 50% degradation) is under 100 nM. At SMARCA2, the Dmax is over 90% and the 50% degradation concentration (DC50) was under 100 nM.

Regarding `Cc1ncsc1-c1ccc(CNC(=O)[C@@H]2C[C@@H](O)CN2C(=O)C(NC(=O)C[C@H]2CC[C@@H](N3CCC(c4cnc(N5C6CCC5CN(c5cc(-c7ccccc7O)nnc5N)C6)nc4)CC3)CC2)C(C)(C)C)cc1` (stereo partly drawn) [I-346], on SMARCA4, the Dmax lay in the range of 70 to 90% and the DC50 was under 100 nM. Also, on SMARCA2, the Dmax was over 90% and the DC50 lay in the range of 100 to 500 nM.

For `Cc1ncsc1-c1ccc(CNC(=O)[C@@H]2C[C@@H](O)CN2C(=O)[C@@H](NC(=O)C[C@H]2CC[C@H](c3nccc(N4C5CCC4CN(c4cc(-c6ccccc6O)nnc4N)C5)n3)CC2)C(C)(C)C)cc1` [I-364], at SMARCA4, the Dmax is over 90% and the DC50 is under 100 nM. Moreover, on SMARCA2, the Dmax is over 90% and the DC50 is 100 to 500 nM.

With `CC(C)(C)[C@H](NC(=O)C1(F)CC1)C(=O)N1C[C@H](O)C[C@H]1C(=O)NCc1ccc(-c2scnc2-c2ccc3cn[nH]c3c2)cc1OCCc1ccc(CN2CCN(c3cc(-c4ccccc4O)nnc3N)CC2)cc1` [I-447, (2S,4R)—N-(4-(4-(1H-indazol-6-yl)thiazol-5-yl)-2-(4-((4-(3-amino-6-(2-hydroxyphenyl)pyridazin-4-yl)piperazin-1-yl)methyl)phenethoxy)benzyl)-1-((S)-2-(1-fluorocyclopropanecarboxamido)-3,3-dimethylbutanoyl)-4-hydroxypyrrolidine-2-carboxamide], at SMARCA4, the Dmax is over 90% and the DC50 is under 100 nM. Moreover, on SMARCA2, the Dmax is over 90% and the DC50 lay in the range of 100 to 500 nM.

Turning to `Cc1ncsc1-c1ccc(CNC(=O)[C@@H]2C[C@@H](O)CN2C(=O)[C@@H](NC(=O)COCCCc2cnc(N3C4CCC3CN(c3cc(-c5ccccc5O)nnc3N)C4)nc2)C(C)(C)C)cc1` [I-357], at SMARCA4, the Dmax was over 90% and the DC50 was under 100 nM. Further, on SMARCA2, the Dmax is over 90% and the DC50 lay within 100 to 500 nM.

In the case of `Cc1ncsc1-c1ccc(CNC(=O)[C@@H]2C[C@@H](O)CN2C(=O)[C@@H](NC(=O)CCCCN2CCC(C(=O)N3CCC(Cn4cc(-c5cc(-c6ccccc6O)nnc5N)cn4)CC3)CC2)C(C)(C)C)cc1` [I-352], the Dmax at SMARCA4 and at SMARCA2 was under 50% each time. The DC50 on SMARCA4 and on SMARCA2 was over 1000 nM in each case.

Take `Cc1ncsc1-c1ccc(CNC(=O)[C@@H]2C[C@@H](O)CN2C(=O)[C@@H](NC(=O)C[C@H]2CC[C@@H](c3nccc(N4C5CCC4CN(c4cc(-c6ccccc6O)nnc4N)C5)n3)CC2)C(C)(C)C)cc1` [I-365]: the maximal degradation (Dmax) on SMARCA4 and on SMARCA2 was over 90% each time. Moreover, the DC50 at SMARCA4 was under 100 nM; at SMARCA2, 100 to 500 nM.

`Cc1ncsc1-c1ccc(CNC(=O)[C@@H]2C[C@@H](O)CN2C(=O)[C@@H](NC(=O)C2CCN(C(=O)c3cnc(N4C5CCC4CN(c4cc(-c6ccccc6O)nnc4N)C5)nc3)CC2)C(C)(C)C)cc1` [I-342, 1-[2-[3-[3-amino-6-(2-hydroxyphenyl)pyridazin-4-yl]-3,8-diazabicyclo [3.2.1]octan-8-yl]pyrimidine-5-carbonyl]-N-[(1S)-1-[(2S,4R)-4-hydroxy-2-[[4-(4-methylthiazol-5-yl)phenyl]methylcarbamoyl]pyrrolidine-1-carbonyl]-2,2-dimethyl-propyl]piperidine-4-carboxamide]: the figures for the Dmax at SMARCA4 and on SMARCA2 were 70 to 90% and under 50%, respectively. For the same compound, the half-maximal degradation concentration (DC50) on SMARCA4 was 100 to 500 nM; at SMARCA2 it was over 1000 nM.

`Cc1ncsc1-c1ccc(CNC(=O)[C@@H]2C[C@@H](O)CN2C(=O)[C@@H](NC(=O)CCN2CCN(Cc3ccc(-c4cc(-c5ccccc5O)nnc4N)cc3)CC2)C(C)(C)C)cc1` [I-474]: on SMARCA4, the Dmax lay in the range of 70 to 90%. On SMARCA2, the Dmax was under 50% and the DC50 is over 1000 nM.

Turning to `Cc1ncsc1-c1ccc(CNC(=O)[C@@H]2C[C@@H](O)CN2C(=O)[C@@H](NC(=O)CCCCN2CCC(CN3CCC(Cn4cc(-c5cc(-c6ccccc6O)nnc5N)cn4)CC3)CC2)C(C)(C)C)cc1` [I-351], the Dmax on SMARCA4 and at SMARCA2 was under 50% in each case. The DC50 on SMARCA4 and on SMARCA2 was over 1000 nM in each case.

`Cc1ncsc1-c1ccc(CNC(=O)[C@@H]2C[C@@H](O)CN2C(=O)[C@@H](NC(=O)C2CN(Cc3cnc(N4C5CCC4CN(c4cc(-c6ccccc6O)nnc4N)C5)nc3)C2)C(C)(C)C)cc1` [I-385]: on SMARCA4, the Dmax was over 90% and the DC50 was under 100 nM. In addition, at SMARCA2, the Dmax was 50 to 70% and the DC50 fell in the range of 501 to 1000 nM.

As for `Cc1ncsc1-c1ccc(CNC(=O)[C@@H]2C[C@@H](O)CN2C(=O)[C@@H](NC(=O)[C@H]2CCN(Cc3cnc(N4C5CCC4CN(c4cc(-c6ccccc6O)nnc4N)C5)nc3)C2)C(C)(C)C)cc1` [I-387], at SMARCA4, the Dmax is over 90% and the DC50 lay in the range of 501 to 1000 nM. In addition, on SMARCA2, the Dmax is under 50% and the DC50 was over 1000 nM.

For the compound `Cc1ncsc1-c1ccc(CNC(=O)[C@@H]2C[C@@H](O)CN2C(=O)[C@@H](NC(=O)[C@H]2C[C@@H](N3CCC(n4cc(-c5cc(-c6ccccc6O)nnc5N)cn4)CC3)C2)C(C)(C)C)cc1` [I-358], on SMARCA4, the Dmax was over 90% and the DC50 lay in the range of 100 to 500 nM. Further, at SMARCA2, the Dmax was 70 to 90% and the half-maximal degradation concentration (DC50) lay in the range of 501 to 1000 nM.

With `Cc1ncsc1-c1ccc(CNC(=O)[C@@H]2C[C@@H](O)CN2C(=O)[C@@H](NC(=O)[C@H](C)N2CCC(c3cnc(N4C5CCC4CN(c4cc(-c6ccccc6O)nnc4N)C5)nc3)CC2)C(C)(C)C)cc1` [I-481], the Dmax is over 90% at SMARCA4 and under 50% at SMARCA2. Moreover, the 50% degradation concentration (DC50) at SMARCA4 and at SMARCA2 was over 1000 nM throughout.

Consider `Cn1c(=O)n(C2CCC(=O)NC2=O)c2ccc(C3CC4(C3)CC(N3CCC(c5cnc(N6C7CCC6CN(c6cc(-c8ccccc8O)nnc6N)C7)nc5)CC3)C4)cc21` (single isomer, unassigned) [I-536 (P2), 3-(5-(6-(4-(2-(3-(3-amino-6-(2-hydroxyphenyl)pyridazin-4-yl)-3,8-diazabicyclo[3.2.1]octan-8-yl)pyrimidin-5-yl)piperidin-1-yl)spiro[3.3]heptan-2-yl)-3-methyl-2-oxo-2,3-dihydro-1H-benzo[d]imidazol-1-yl)piperidine-2,6-dione], for which the DC50 at SMARCA4 and on SMARCA2 was under 100 nM each time.

For `Cc1ncsc1-c1ccc(CNC(=O)[C@@H]2C[C@@H](O)CN2C(=O)[C@@H](NC(=O)[C@@H]2CCN(Cc3cnc(N4C5CCC4CN(c4cc(-c6ccccc6O)nnc4N)C5)nc3)C2)C(C)(C)C)cc1` [I-386, (2S,4R)-1-((2S)-2-((3R)-1-((2-(3-(3-amino-6-(2-hydroxyphenyl)pyridazin-4-yl)-3,8-diazabicyclo[3.2.1]octan-8-yl)pyrimidin-5-yl)methyl)pyrrolidine-3-carboxamido)-3,3-dimethylbutanoyl)-4-hydroxy-N-(4-(4-methylthiazol-5-yl)benzyl)pyrrolidine-2-carboxamide], at SMARCA4, the Dmax is over 90% and the DC50 lay within 100 to 500 nM. On SMARCA2, the Dmax lay in the range of 50 to 70% and the DC50 lay within 501 to 1000 nM.

With `Nc1nnc(-c2ccccc2O)cc1N1CC2CCC(C1)N2c1ncc(C2CCN(CCCCCCCCCNC(=O)COc3ccc4c(c3)CCCN4C(=O)CCl)CC2)cn1` [I-525], the Dmax was 50 to 70% on SMARCA4 and under 50% on SMARCA2. In addition, the DC50 on SMARCA4 and on SMARCA2 was over 1000 nM in each case.

Consider `Cc1ncsc1-c1ccc(CNC(=O)[C@@H]2C[C@@H](O)CN2C(=O)[C@@H](NC(=O)[C@H]2CC[C@H](c3nccc(N4C5CCC4CN(c4cc(-c6ccccc6O)nnc4N)C5)n3)CC2)C(C)(C)C)cc1` [I-363], for which, at SMARCA4, the Dmax is over 90% and the 50% degradation concentration (DC50) is under 100 nM. For the same compound, at SMARCA2, the Dmax was over 90% and the DC50 is 100 to 500 nM.

In the case of `Cc1ncsc1-c1ccc(CNC(=O)[C@@H]2C[C@@H](O)CN2C(=O)[C@@H](NC(=O)C[C@H]2CC[C@H](N3CCC(n4cc(-c5cc(-c6ccccc6O)nnc5N)cn4)CC3)CC2)C(C)(C)C)cc1` [I-328], the Dmax on SMARCA4 and at SMARCA2 was over 90% throughout. Besides, the DC50 is under 100 nM at SMARCA4 and 100 to 500 nM on SMARCA2.

As to `Cc1ncsc1-c1ccc(CNC(=O)[C@@H]2C[C@@H](O)CN2C(=O)[C@@H](NC(=O)CC2CC(N3CCC(c4cnc(N5C6CCC5CN(c5cc(-c7ccccc7O)nnc5N)C6)nc4)CC3)C2)C(C)(C)C)cc1` (stereo partly drawn) [I-512], the Dmax on SMARCA4 was under 50%; on SMARCA2, 70 to 90%. The DC50 at SMARCA4 is over 1000 nM; at SMARCA2 it was 100 to 500 nM.

For the compound `Cc1ncsc1-c1ccc(CNC(=O)[C@@H]2C[C@@H](O)CN2C(=O)[C@@H](NC(=O)[C@H]2CC[C@H](N3CCC(c4cnc(N5C6CCC5CN(c5cc(-c7ccccc7O)nnc5N)C6)nc4)CC3)CC2)C(C)(C)C)cc1` [I-355], on SMARCA4, the Dmax lay in the range of 70 to 90% and the DC50 fell in the range of 100 to 500 nM. On SMARCA2, the Dmax is over 90% and the half-maximal degradation concentration (DC50) lay within 100 to 500 nM.
